Columns and labels:
Format in all cases: in vivo
[1] = test system: Poa; assay: Pre-emergence test/Greenhouse, Poa; settings: after three weeks
Procedure: (§1) To produce a suitable preparation of the active compound, 1 part by weight of active compound is mixed with the stated amount of solvent, the stated amount of emulsifier is added and the concentrate is diluted with water to the desired concentration.
(§2) Seeds of the test plants are sown in normal soil. After about 24 hours, the soil is watered with the preparation of active compound. Advantageously, the amount of water per unit area is kept constant. The active compound concentration in the preparation is not important, only the active compound appliation rate per unit area matters.
(§3) After three weeks, the degree of damage to the plants is rated in % damage in comparison to the development of the untreated control.
(§4) 0%=no action (like untreated control)

[2] = test system: weeds; assay: Pre-emergence test (greenhouse), activity against weeds; settings: in words
Procedure: Solvent: 5 parts by weight of acetone
Emulsifier: 1 part by weight of alkylaryl polyglycol ether
as §1, §2, §3, §4

[3] = test system: Matricaria; assay: Pre-emergence test/Greenhouse, Matricaria; settings: after three weeks
Procedure: as §1, §2, §3, §4

[4] = test system: Solanum; assay: Pre-emergence test/Greenhouse, Solanum; settings: after three weeks
Procedure: as §1, §2, §3, §4

[5] = test system: Ambrosia; assay: Pre-emergence test/Greenhouse, Ambrosia; settings: after three weeks
Procedure: as §1, §2, §3, §4

[6] = test system: Soya beans; assay: Pre-emergence test/Greenhouse, Soya beans
Procedure: as §1, §2, §3, §4

[7] = test system: Lolium; assay: Pre-emergence test/Greenhouse, Lolium; settings: after three weeks
Procedure: as §1, §2, §3, §4

[8] = test system: Maize; assay: Pre-emergence test/Greenhouse, Maize
Procedure: as §1, §2, §3, §4

[9] = test system: Sorghum; assay: Pre-emergence test/Greenhouse, Sorghum; settings: after three weeks
Procedure: as §1, §2, §3, §4

[10] = pre-emergence, 60 g of ai./ha, after three weeks

Row | SMILES | degree of damage to the plants (% damage vs untreated control), Poa ([1]; 60 g of ai./ha) | activity against weeds [2] | degree of damage to the plants (% damage vs untreated control), Matricaria ([3]; 60 g of ai./ha) | degree of damage to the plants (% damage vs untreated control), Solanum ([4]; 60 g of ai./ha) | degree of damage to the plants (% damage vs untreated control), Ambrosia ([5]; 60 g of ai./ha) | degree of damage to the plants (% damage vs untreated control), Lolium ([7]; 60 g of ai./ha) | degree of damage to the plants (% damage vs untreated control), Poa ([1]; 125 g of ai./ha) | degree of damage to the plants (% damage vs untreated control), Matricaria ([3]; 125 g of ai./ha) | degree of damage to the plants (% damage vs untreated control), Solanum ([4]; 125 g of ai./ha) | degree of damage to the plants (% damage vs untreated control), Ambrosia ([5]; 125 g of ai./ha) | degree of damage to the plants (% damage vs untreated control), Lolium ([7]; 125 g of ai./ha) | degree of damage to the plants (% damage vs untreated control), Maize ([8]; in vivo) | degree of damage to the plants (% damage vs untreated control), Soya beans ([6]; in vivo) | further results
1 | CCOn1c(SCC)nn(C(=O)NS(=O)(=O)c2c(C)cccc2C(=O)OC)c1=O [Example 3, 4-ethoxy-5-ethylthio-2-(2-methyl-6-methoxy-carbonyl-phenylsulphonylaminocarbonyl)-2,4-dihydro-3H-1,2,4-triazol-3-one] | 70% | very strong activity against weeds | 95% | 80% | 80% | 90% |  |  |  |  |  |  |  | degree of damage to the plants (% damage vs untreated control), Soya beans [6, 10]: 20%; degree of damage to the plants (% damage vs untreated control), Maize [8, 10]: 10%
2 | COC(=O)c1cccc(C)c1S(=O)(=O)NC(=O)c1noc(C)n1 [Example 9] |  | very strong activity against weeds |  |  |  |  | 80% | 90% | 95% | 95% | 80% | 0% |  | degree of damage to the plants (% damage vs untreated control), Sorghum ([9]; 125 g of ai./ha): 60%
3 | COC(=O)c1scc(C)c1S(=O)(=O)NC(=O)c1noc(C)n1 [Example 13] |  | very strong activity against weeds |  |  |  |  | 80% | 95% | 90% | 95% | 90% | 30% |  | degree of damage to the plants (% damage vs untreated control), Sorghum ([9]; 125 g of ai./ha): 70%
4 | CCn1c(OC)nn(C(=O)NS(=O)(=O)c2c(C)cccc2C(=O)OC(C)C)c1=O [Example 19] | 95% | very strong activity against weeds | 95% | 90% | 95% | 95% |  |  |  |  |  | 0% | 0% | 
5 | CCCc1nn(C(=O)NS(=O)(=O)c2c(C)csc2C(=O)OC)c(=O)n1C [Example 35] | 95% | very strong activity against weeds | 100% | 95% | 95% | 95% |  |  |  |  |  | 0% |  | degree of damage to the plants (% damage vs untreated control), Sorghum ([9]; 60 g of ai./ha): 95%
6 | CCn1c(OC)nn(C(=O)NS(=O)(=O)c2c(C)csc2C(=O)OC)c1=O [Example 37] | 70% | very strong activity against weeds | 95% | 90% | 80% | 90% |  |  |  |  |  | 10% | 10% | 
7 | CCCc1nn(C(=O)NS(=O)(=O)c2c(C)csc2C(=O)OC)c(=O)n1OC [Example 39] | 90% | very strong activity against weeds | 70% | 90% | 95% | 95% |  |  |  |  |  | 0% | 20% | 
8 | COC(=O)c1scc(C)c1S(=O)(=O)NC(=O)n1nc(OC(C)C)n(C)c1=O [Example 40] | 95% | very strong activity against weeds | 95% | 95% | 95% | 90% |  |  |  |  |  | 10% | 30% | 
9 | CCOc1nn(C(=O)NS(=O)(=O)c2c(C)csc2C(=O)OC)c(=O)n1CC [Example 41] | 80% | very strong activity against weeds | 95% | 90% | 95% | 60% |  |  |  |  |  | 0% |  | degree of damage to the plants (% damage vs untreated control), Sorghum ([9]; 60 g of ai./ha): 60%
10 | CCSc1nn(C(=O)NS(=O)(=O)c2c(C)cccc2C(=O)OC(C)C)c(=O)n1C [Example 42] | 95% | very strong activity against weeds | 95% | 95% | 95% | 95% |  |  |  |  |  | 10% | 10% | 
11 | CCCOC(=O)c1cccc(C)c1S(=O)(=O)NC(=O)n1nc(OCC)n(CC)c1=O [Example 45] |  | very strong activity against weeds |  |  |  |  | 95% | 90% | 95% | 95% | 90% | 10% | 20% | 
12 | CCOc1nn(C(=O)NS(=O)(=O)c2c(C)cccc2C(=O)OC(C)C)c(=O)n1C1CC1 [Example 46] |  | very strong activity against weeds |  |  |  |  |  |  |  |  |  | 0% |  | degree of damage to the plants (% damage vs untreated control), Poa ([1]; 8 g of ai./ha): 95%; degree of damage to the plants (% damage vs untreated control), Matricaria ([3]; 8 g of ai./ha): 95%; degree of damage to the plants (% damage vs untreated control), Sorghum ([9]; 8 g of ai./ha): 80%; degree of damage to the plants (% damage vs untreated control), Solanum ([4]; 8 g of ai./ha): 95%; degree of damage to the plants (% damage vs untreated control), Ambrosia ([5]; 8 g of ai./ha): 95%; degree of damage to the plants (% damage vs untreated control), Lolium ([7]; 8 g of ai./ha): 80%
13 | CCCOC(=O)c1cccc(C)c1S(=O)(=O)NC(=O)n1nc(SCC)n(C)c1=O [Example 48] |  | very strong activity against weeds |  |  |  |  | 95% | 100% | 95% | 95% | 95% | 30% | 20% | 
14 | CCOC(=O)c1scc(C)c1S(=O)(=O)NC(=O)n1nc(SC)n(C)c1=O [Example 55] |  | very strong activity against weeds |  |  |  |  | 90% | 100% | 100% | 100% | 100% | 10% |  | degree of damage to the plants (% damage vs untreated control), Sorghum ([9]; 125 g of ai./ha): 60%
15 | CCOC(=O)c1scc(C)c1S(=O)(=O)NC(=O)n1nc(SCC)n(C)c1=O [Example 56] |  | very strong activity against weeds |  |  |  |  | 80% | 100% | 95% |  | 60% |  | 0% | 
16 | CCOC(=O)c1scc(C)c1S(=O)(=O)NC(=O)n1nc(CC)n(OCC)c1=O [Example 61] |  | very strong activity against weeds |  |  |  |  | 95% | 95% | 95% | 100% | 95% | 0% |  | degree of damage to the plants (% damage vs untreated control), Sorghum ([9]; 125 g of ai./ha): 80%
17 | C=CCn1c(SCCF)nn(C(=O)NS(=O)(=O)c2c(C)cccc2C(=O)OC)c1=O [Example 153] |  | very strong activity against weeds |  |  |  |  | 95% | 70% | 95% | 95% |  | 0% | 30% | 

From patent US6441195B1, “Substituted sulphonylamino(thio) carbonyl compounds” (Bayer Aktiengesellschaft, priority 1995, dated 2002)
